From ChEMBL document CHEMBL4513141, “CO-ADD screening of NIH (USA) - Clinical Collection” (2021) come the findings set out here.

In brackets after ≈: the same amount, converted by molar mass. Where a name gives a salt, the structure may show the parent alone.

Test [1] has as its system Pseudomonas aeruginosa. Nature of the test: microbe, parasite or virus in culture. To be noted: ATCC 27853, 18 h, ASSAY_TEST Inhibition of Bacterial Growth, detection method Absorption (OD600), MEDIA CAMHB, plate type 384well, NBS, CORNING #3640.
Description: Antibacterial activity against Pseudomonas aeruginosa ATCC 27853 (CO-ADD:GN_042); MIC in CAMBH media using NBS plates, by OD(600)
In test [2] the test system is Staphylococcus aureus. Put plainly: microbe, parasite or virus in culture. Conditions: ATCC 43300, 18 h, ASSAY_TEST Inhibition of Bacterial Growth, detection method Absorption (OD600), MEDIA CAMHB, plate type 384well, NBS, CORNING #3640.
Description: Antibacterial activity against Staphylococcus aureus MRSA ATCC 43300 (CO-ADD:GP_020); MIC in CAMBH media, using NBS plates, by OD(600)
Test [3] has as its system Cryptococcus neoformans.
Description: Antifungal activity against Cryptococcus neoformans H99 ATCC 208821 (CO-ADD:FG_002); MIC in YNB media using NBS plates, by Resazurin OD(600-570)
For test [4], the system named is Klebsiella pneumoniae. Put plainly: microbe, parasite or virus in culture. Conditions: ATCC 700603, 18 h, ASSAY_TEST Inhibition of Bacterial Growth, detection method Absorption (OD600), MEDIA CAMHB, plate type 384well, NBS, CORNING #3640.
Description: Antibacterial activity against Klebsiella pneumoniae MDR ATCC 70063 (CO-ADD:GN_003); MIC in CAMBH media using NBS plates, by OD(600)
Test [5] relates to Acinetobacter baumannii. Put plainly: microbe, parasite or virus in culture. To be noted: ATCC 19606, 18 h, ASSAY_TEST Inhibition of Bacterial Growth, detection method Absorption (OD600), MEDIA CAMHB, plate type 384well, NBS, CORNING #3640.
Description: Antibacterial activity against Acinetobacter baumannii ATCC 19606 (CO-ADD:GN_034); MIC in CAMBH media using NBS plates, by OD600
Test [6] deals with Escherichia coli. Nature of the test: microbe, parasite or virus in culture. Conditions: ATCC 25922, 18 h, ASSAY_TEST Inhibition of Bacterial Growth, detection method Absorption (OD600), MEDIA CAMHB, plate type 384well, NBS, CORNING #3640.
Description: Antibacterial activity against Escherichia coli ATCC 25922 (CO-ADD:GN_001); MIC in CAMBH media using NBS plates, by OD(600)
Test [7] has as its system HEK293. Nature of the test: cells. The test is classed as functional, Homo sapiens, ATCC CRL1573. Conditions: Homo sapiens, ATCC CRL1573, HEK293; ASSAY_TEST Inhibition of Cell Viability; detection method Resazurin; Fluorescence (ex560/em590); MEDIA DMEM with 10% FBS; plate type 384well; TC; CORNING #3712; time 18 hr.
The test system of test [8] is Candida albicans. Put plainly: microbe, parasite or virus in culture. Conditions: ATCC 90028, ASSAY_TEST Inhibition of Fungal Growth, detection method Absorption (OD530), plate type 384well, NBS, CORNING #3640.
Description: Antifungal activity against Candida albicans ATCC 90028 (CO-ADD:FG_001); MIC in YNB media using NBS plates, by OD630

One may read the CC50 as the concentration that lowers cell viability or growth by half. On to `Cc1onc(-c2ccccc2)c1C(=O)NC1C(=O)N2C1SC(C)(C)C2C(=O)O` (stereo unspecified), for which the MIC in test [1], in test [2], in test [3], in test [4], in test [5] and in test [6] was greater than 10 µM each time. In test [8], this molecule yielded an MIC greater than 10 µM. The molecule further returned a CC50 in test [7] greater than 10 µM.
As to `CCOc1ccc2ccccc2c1C(=O)N[C@@H]1C(=O)N2[C@@H]1SC(C)(C)[C@@H]2C(=O)O` [NAFCILLIN SODIUM], the MIC in test [1] was greater than 10 µM; in test [2], 1.25 µM; in test [3], greater than 10 µM; in test [4] it was greater than 10 µM; in test [5], greater than 10 µM; in test [6], greater than 10 µM. In test [8], this molecule had an MIC greater than 10 µM. Besides, the CC50 in test [7] was greater than 10 µM.
For `COc1cc(C)c(Cc2cnc(N)nc2N)cc1OC` [ORMETOPRIM], the MIC in test [1] is greater than 10 µM; in test [2] it was 5 µM (≈ 1.37 µg/mL); in test [3], greater than 10 µM; in test [4] it was greater than 10 µM; in test [5], greater than 10 µM; in test [6], 5 µM (≈ 1.37 µg/mL). In test [8], this molecule came in with an MIC greater than 10 µM. For the same molecule, the CC50 in test [7] is greater than 10 µM.
Take `CN(C)[C@@H]1C(=O)C(C(N)=O)=C(O)[C@@]2(O)C(O)=C3C(=O)c4c(O)cccc4[C@@](C)(O)[C@H]3[C@H](O)[C@@H]12`: the MIC in test [1] was 10 µM (≈ 4.6 µg/mL); in test [2], 1.25 µM (≈ 0.576 µg/mL); in test [3], greater than 10 µM; in test [4], greater than 10 µM; in test [5], greater than 10 µM; in test [6], 5 µM (≈ 2.3 µg/mL). The MIC in test [8] was greater than 10 µM. The CC50 in test [7] was greater than 10 µM.
Take `c1ccc(-c2ccc(C(c3ccccc3)n3ccnc3)cc2)cc1` (stereo unspecified) [BIFONAZOLE]: the MIC in test [1] was greater than 10 µM; in test [2], greater than 10 µM; in test [3], 10 µM (≈ 3.1 µg/mL); in test [4] it was greater than 10 µM; in test [5] it was greater than 10 µM; in test [6] it was greater than 10 µM. This molecule also showed an MIC in test [8] greater than 10 µM. The molecule further displayed a cytotoxic concentration (CC50) in test [7] greater than 10 µM.
`COC(=O)Nc1nc2cc(C(=O)c3ccc(F)cc3)ccc2[nH]1` [FLUBENDAZOLE]: the MIC in test [1], in test [2], in test [3], in test [4], in test [5] and in test [6] was greater than 10 µM throughout. Besides, the MIC in test [8] was greater than 10 µM. For the same molecule, the midpoint of cytotoxicity in test [7], the CC50, lay at 7.02 µM.
Regarding `CCc1c2c(nc3ccc(OC(=O)N4CCC(N5CCCCC5)CC4)cc13)-c1cc3c(c(=O)n1C2)COC(=O)[C@]3(O)CC` [IRINOTECAN HYDROCHLORIDE], the MIC in test [1], in test [2], in test [3], in test [4], in test [5] and in test [6] was greater than 10 µM each time. For the same molecule, in test [8], the MIC was greater than 10 µM. In addition, it took 0.341 µM to reach half-maximal cytotoxicity in test [7] (CC50).
With `O=c1[nH]cc(F)c(=O)[nH]1` [FLUOROURACIL], the MIC in test [1] was greater than 10 µM; in test [2], 2.5 µM (≈ 0.325 µg/mL); in test [3], 5 µM (≈ 0.65 µg/mL); in test [4], greater than 10 µM; in test [5] it was greater than 10 µM; in test [6] it was greater than 10 µM. Besides, the MIC in test [8] is greater than 10 µM. In test [7], the CC50 was greater than 10 µM.
Turning to `COCc1c(C(C)C)nc(C(C)C)c(/C=C/[C@@H](O)C[C@@H](O)CC(=O)O)c1-c1ccc(F)cc1` [CERIVASTATIN SODIUM], the MIC in test [1] is greater than 10 µM; in test [2] it was greater than 10 µM; in test [3], 5 µM; in test [4], greater than 10 µM; in test [5], greater than 10 µM; in test [6], greater than 10 µM. Further, the MIC in test [8] turned out to be 5 µM. Also, the half-maximal cytotoxic concentration (CC50) in test [7] is greater than 10 µM.
Take `C=CC[C@@H]1C=C(C)C[C@H](C)C[C@H](OC)[C@H]2O[C@@](O)(C(=O)C(=O)N3CCCC[C@H]3C(=O)O[C@H](/C(C)=C/[C@@H]3CC[C@@H](O)[C@H](OC)C3)[C@H](C)[C@@H](O)CC1=O)[C@H](C)C[C@@H]2OC`: the MIC in test [1] was greater than 10 µM; in test [2] it was greater than 10 µM; in test [3], no more than 0.0781 µM; in test [4] it was greater than 10 µM; in test [5], greater than 10 µM; in test [6], greater than 10 µM. The MIC in test [8] is greater than 10 µM. In test [7], this molecule displayed a CC50 greater than 10 µM.
Take `CC(C)n1c(/C=C/C(O)CC(O)CC(=O)O)c(-c2ccc(F)cc2)c2ccccc21` (stereo unspecified) [FLUVASTATIN]: the MIC in test [1], in test [2], in test [3], in test [4], in test [5] and in test [6] was greater than 10 µM in each case. Besides, the MIC in test [8] worked out at 5 µM (≈ 2.06 µg/mL). This molecule gave a half-maximal cytotoxic concentration (CC50) in test [7] greater than 10 µM.
For `COc1cccc2c1C(=O)c1c(O)c3c(c(O)c1C2=O)C[C@@](O)(C(=O)CO)C[C@@H]3O[C@H]1C[C@H](N)[C@H](O)[C@H](C)O1` [DOXORUBICIN HYDROCHLORIDE], the MIC is greater than 10 µM in test [1]; 10 µM in test [2]; greater than 10 µM in test [3]; greater than 10 µM in test [4]; greater than 10 µM in test [5]; greater than 10 µM in test [6]. In test [8], this molecule gave an MIC greater than 10 µM. In test [7], the CC50 is greater than 10 µM.
Consider `CO[C@H]1/C=C/O[C@@]2(C)Oc3c(C)c(O)c4c(O)c(c(C=NN5CCN(C)CC5)c(O)c4c3C2=O)NC(=O)/C(C)=C\C=C\[C@H](C)[C@H](O)[C@@H](C)[C@@H](O)[C@@H](C)[C@H](OC(C)=O)[C@@H]1C`, for which the MIC is 2.5 µM (≈ 2.06 µg/mL) in test [1]; no more than 0.0781 µM in test [2]; greater than 10 µM in test [3]; greater than 10 µM in test [4]; greater than 10 µM in test [5]; 10 µM (≈ 8.23 µg/mL) in test [6]. The molecule also showed an MIC in test [8] greater than 10 µM. In test [7], the cytotoxic concentration (CC50) is greater than 10 µM.
`O=C(O)C[C@H](O)C[C@H](O)/C=C/c1c(C2CC2)nc2ccccc2c1-c1ccc(F)cc1` [PITAVASTATIN CALCIUM]: the MIC in test [1] was greater than 10 µM; in test [2] it was greater than 10 µM; in test [3], 10 µM; in test [4] it was greater than 10 µM; in test [5], greater than 10 µM; in test [6], greater than 10 µM. For the same molecule, in test [8], the MIC was found to be 2.5 µM. The CC50 in test [7] was greater than 10 µM.
As to `Cc1cn([C@H]2C[C@H](N=[N+]=[N-])[C@@H](CO)O2)c(=O)[nH]c1=O` [ZIDOVUDINE], the MIC in test [1] was greater than 10 µM; in test [2], greater than 10 µM; in test [3], greater than 10 µM; in test [4], 5 µM (≈ 1.34 µg/mL); in test [5], greater than 10 µM; in test [6], 5 µM (≈ 1.34 µg/mL). The molecule also displayed an MIC in test [8] greater than 10 µM. In test [7], this molecule showed a CC50 greater than 10 µM.
For `Cc1nnc(SCC2=C(C(=O)O)N3C(=O)C(NC(=O)Cn4cnnn4)C3SC2)s1` (stereo unspecified), the MIC in test [1], in test [2], in test [3], in test [4], in test [5] and in test [6] was greater than 10 µM in each case. The MIC in test [8] was greater than 10 µM. This molecule also had a CC50 in test [7] greater than 10 µM.
In the case of `CO[C@H]1C=CO[C@@]2(C)Oc3c(C)c(O)c4c(O)c(c5c(nc6cc(C)ccn65)c4c3C2=O)NC(=O)C(C)=CC=C[C@H](C)[C@H](O)[C@@H](C)[C@@H](O)[C@@H](C)[C@H](OC(C)=O)[C@@H]1C`, the MIC in test [1] was 2.5 µM (≈ 1.96 µg/mL); in test [2], no more than 0.0781 µM; in test [3], greater than 10 µM; in test [4], greater than 10 µM; in test [5] it was 10 µM (≈ 7.86 µg/mL); in test [6], 10 µM (≈ 7.86 µg/mL). Further, the MIC in test [8] is greater than 10 µM. The molecule further registered a CC50 in test [7] greater than 10 µM.
